Results: US12077503B2, “Substituted cyclic amides and their use as herbicides” (FMC CORPORATION, priority 2015, dated 2024)

Tests used:
Format in all cases: in vivo
Kochia (Kochia scoparia) [1] = experiment: Test A preemergence
In short: (§1)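 In a loam soil and sand blend, planted seeds got a preemergence directed soil spray, and young plants at the one- to two-leaf stage, 2–10 cm high, got a postemergence application; ~10 d greenhouse hold; injury rated visually, 0 = none, 100 = complete control.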

[2] = test system: barnyardgrass (Echinochloa crus-galli); experiment: Test A preemergence
In short: as §1

[3] = test system: giant foxtail (Setaria faberii); experiment: Test A preemergence
In short: as §1

[4] = test system: pigweed (Amaranthus retroflexus); experiment: Test A preemergence
[5] = test system: ragweed (common ragweed, Ambrosia elatior); experiment: Test A preemergence
In short: as §1

[6] = test system: ryegrass, Italian (Italian ryegrass, Lolium multiflorum); experiment: Test A preemergence
In short: as §1

[7] = test system: Galium (catchweed bedstraw, Galium aparine); experiment: Test A postemergence; details: postemergence
In short: as §1

Kochia (Kochia scoparia) [8] = experiment: Test A postemergence; details: postemergence
In short: as §1

[9] = test system: barnyardgrass (Echinochloa crus-galli); experiment: Test A postemergence
In short: as §1

[10] = test system: blackgrass (Alopecurus myosuroides); experiment: Test A postemergence
In short: as §1

corn (Zea mays) = experiment: Test A postemergence
In short: as §1

[11] = test system: giant foxtail (Setaria faberii); experiment: Test A postemergence; details: postemergence
In short: as §1

[12] = test system: pigweed (Amaranthus retroflexus); experiment: Test A postemergence; details: postemergence
In short: as §1

[13] = test system: ragweed (common ragweed, Ambrosia elatior); experiment: Test A postemergence; details: postemergence
In short: as §1

[14] = test system: ryegrass, Italian (Italian ryegrass, Lolium multiflorum); experiment: Test A postemergence; details: postemergence
In short: as §1

[15] = test system: wheat (Triticum aestivum); experiment: Test A postemergence; details: postemergence
In short: as §1

[16] = test system: barnyardgrass (Echinochloa crus-galli); experiment: Test B flooded paddy test; details: Flood, 500 g ai/ha; 0 to 100 scale where 0 is no effect and 100 is complete control; 13 to 15 d
In short: (§2)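 Flooding to 3 cm over soil accompanied treatment, which consisted of adding compound to the standing water around 2-leaf plants; depth was then maintained. Visual assessment versus controls followed at 13 to 15 d (scale 0–100, 0 meaning no effect).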

[17] = test system: ducksalad (Heteranthera limosa); experiment: Test B flooded paddy test; details: Flood, 500 g ai/ha; 0 to 100 scale where 0 is no effect and 100 is complete control; 13 to 15 d
In short: as §2

rice (Oryra sativa) = experiment: Test B flooded paddy test; details: Flood, 500 g ai/ha; 0 to 100 scale where 0 is no effect and 100 is complete control; 13 to 15 d
In short: as §2

[18] = test system: sedge, umbrella (small-flower umbrella sedge, Cyperus difformis); experiment: Test B flooded paddy test; details: Flood, 500 g ai/ha; 0 to 100 scale where 0 is no effect and 100 is complete control; 13 to 15 d
In short: as §2

[19] = 125 g ai/ha, Preemergence, visual injury after approximately 10 d, 0 to 100 scale where 0 is no effect and 100 is complete control
[20] = 500 g ai/ha, preemergence, 0 to 100 scale, 0 = no effect, 100 = complete control
[21] = 125 g ai/ha, visual rating after approx. 10 d, 0 to 100 scale (0 no effect, 100 complete control)
[22] = 500 g ai/ha, visual injury, 0 to 100 scale (0 no effect, 100 complete control), approx. 10 d
[23] = 125 g ai/ha, postemergence, visual rating after approx. 10 d, 0 to 100 scale (0 no effect, 100 complete control)
[24] = Postemergence, 500 g ai/ha, 0 to 100 scale where 0 is no effect and 100 is complete control
[25] = 125 g ai/ha, preemergence, 0 to 100 scale (0 no effect, 100 complete control)
[26] = Preemergence, 500 g ai/ha, visual injury approx. 10 d
[27] = 125 g ai/ha, visual injury rating on 0 to 100 scale (0 no effect, 100 complete control), approx. 10 d
[28] = 500 g ai/ha, 0 to 100 scale, 0 no effect, 100 complete control
[29] = 125 g ai/ha, postemergence, visual injury rating on 0 to 100 scale (0 no effect, 100 complete control), approx. 10 d
[30] = 500 g ai/ha, postemergence, 0 to 100 scale, 0 no effect, 100 complete control

Structure (SMILES): NS(=O)(=O)c1ccccc1NC(=O)C1C(=O)NCC1c1cccc(C(F)(F)F)c1 (stereo not drawn) [Compound 634]
- Plant response rating, Kochia (Kochia (Kochia scoparia) [1]; [19]): 0
- Plant response rating, Kochia (Kochia (Kochia scoparia) [1]; [20]): 0
- Plant response rating, Barnyardgrass [2, 19]: 20
- Plant response rating, Barnyardgrass [2, 20]: 70
- Plant response rating, Foxtail, Giant [3, 19]: 60
- Plant response rating, Foxtail, Giant [3, 20]: 80
- Plant response rating, Pigweed [4, 19]: 0
- Plant response rating, Pigweed [4, 20]: 30
- Plant response rating, Ragweed [5, 19]: 0
- Plant response rating, Ragweed [5, 20]: 0
- Plant response rating, Ryegrass, Italian [6, 19]: 0
- Plant response rating, Ryegrass, Italian [6, 20]: 0
- Plant response rating, Galium [7, 21]: 30
- Plant response rating, Galium [7, 22]: 60
- Plant response rating, Kochia (Kochia (Kochia scoparia) [8]; [21]): 0
- Plant response rating, Kochia (Kochia (Kochia scoparia) [8]; [22]): 0
- Plant response rating, Barnyardgrass [9, 23]: 40
- Plant response rating, Barnyardgrass [9, 24]: 80
- Plant response rating, Blackgrass [10, 23]: 0
- Plant response rating, Blackgrass [10, 24]: 0
- Plant response rating, Corn (corn (Zea mays); [23]): 0
- Plant response rating, Corn (corn (Zea mays); [24]): 0
- Plant response rating, Foxtail, Giant [11, 21]: 50
- Plant response rating, Foxtail, Giant [11, 22]: 80
- Plant response rating, Pigweed [12, 21]: 0
- Plant response rating, Pigweed [12, 22]: 0
- Plant response rating, Ragweed [13, 21]: 0
- Plant response rating, Ragweed [13, 22]: 0
- Plant response rating, Ryegrass, Italian [14, 21]: 0
- Plant response rating, Ryegrass, Italian [14, 22]: 20
- Plant response rating, Wheat [15, 21]: 0
- Plant response rating, Wheat [15, 22]: 0
- Plant response rating, Barnyardgrass [16]: 20
- Plant response rating, Ducksalad [17]: 40
- Plant response rating, Rice (rice (Oryra sativa)): 15
- Plant response rating, Sedge, Umbrella [18]: 0

Structure (SMILES): O=C1NCC(c2cccc(OCC(F)F)c2)C1C(=O)Nc1ccc(F)c(F)c1F (stereo not drawn) [Compound 407]
- Plant response rating, Kochia (Kochia (Kochia scoparia) [1]; [25]): 0
- Kochia plant response rating (0 to 100 scale, 0 is no effect, 100 is complete control) (Kochia (Kochia scoparia) [1]; [26]): 0
- Plant response rating, Barnyardgrass [2, 25]: 70
- Barnyardgrass plant response rating (0 to 100 scale, 0 is no effect, 100 is complete control) [2, 26]: 80
- Plant response rating, Foxtail, Giant [3, 25]: 80
- Foxtail, Giant plant response rating (0 to 100 scale, 0 is no effect, 100 is complete control) [3, 26]: 90
- Plant response rating, Pigweed [4, 25]: 0
- Pigweed plant response rating (0 to 100 scale, 0 is no effect, 100 is complete control) [4, 26]: 20
- Plant response rating, Ragweed [5, 25]: 0
- Ragweed plant response rating (0 to 100 scale, 0 is no effect, 100 is complete control) [5, 26]: 0
- Plant response rating, Ryegrass, Italian [6, 25]: 0
- Ryegrass, Italian plant response rating (0 to 100 scale, 0 is no effect, 100 is complete control) [6, 26]: 0
- Galium plant response rating [7, 27]: 0
- Plant response rating, Galium [7, 28]: 0
- Kochia plant response rating (Kochia (Kochia scoparia) [8]; [27]): 0
- Plant response rating, Kochia (Kochia (Kochia scoparia) [8]; [28]): 40
- Barnyardgrass plant response rating [9, 29]: 60
- Plant response rating, Barnyardgrass [9, 30]: 70
- Blackgrass plant response rating [10, 29]: 30
- Plant response rating, Blackgrass [10, 30]: 50
- Corn plant response rating (corn (Zea mays); [29]): 0
- Plant response rating, Corn (corn (Zea mays); [30]): 40
- Foxtail, Giant plant response rating [11, 27]: 70
- Plant response rating, Foxtail, Giant [11, 28]: 70
- Pigweed plant response rating [12, 27]: 0
- Plant response rating, Pigweed [12, 28]: 0
- Ragweed plant response rating [13, 27]: 0
- Plant response rating, Ragweed [13, 28]: 0
- Ryegrass, Italian plant response rating [14, 27]: 0
- Plant response rating, Ryegrass, Italian [14, 28]: 0
- Wheat plant response rating [15, 27]: 0
- Plant response rating, Wheat [15, 28]: 0
- Plant response rating, Barnyardgrass [16]: 60
- Plant response rating, Ducksalad [17]: 100
- Plant response rating, Rice (rice (Oryra sativa)): 10
- Plant response rating, Sedge, Umbrella [18]: 0
